Data: PubChem BioAssay AID248 (DTP/NCI, 2004)
“And” between values parts separate entries of the source, which are not always exact repeats. Identical values can stand only once. Inconclusive results and toxic doses are left out. Rule as the data show it: active = T/C of 150% or more; inactive = T/C below 125%.

Tested on: L1210 leukemia ip in BDF1 mice, survival T/C
Experiment: NCI In Vivo Anticancer Drug Screen. Data for tumor model L1210 Leukemia (intraperitoneal) in B6D2F1 (BDF1) mice
Conditions: endpoint: mean survival time, higher = longer survival
How it was run: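 Survival endpoint. Drug-treated group vs vehicle group, expressed as T divided by C. Tumor passaged by transplantation.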

[1] = dose: 100.0 mg/kg/injection, schedule: Q04DX003 (ip), vehicle: saline with Tween-80
[2] = dose: 200.0 mg/kg/injection, schedule: Q04DX003 (ip), vehicle: saline with Tween-80
[3] = dose: 400.0 mg/kg/injection, schedule: Q04DX003 (ip), vehicle: saline with Tween-80
[4] = dose: 100.0 mg/kg/injection, schedule: Q01DX009 (ip), vehicle: saline
[5] = dose: 200.0 mg/kg/injection, schedule: Q01DX009 (ip), vehicle: saline
[6] = dose: 200.0 mg/kg/injection, schedule: Q04DX003 (ip), vehicle: Klucel (hydroxypropylcellulose) (HPC)
[7] = dose: 50.0 mg/kg/injection, schedule: Q01DX009 (ip), vehicle: saline with Tween-80
[8] = dose: 100.0 mg/kg/injection, schedule: Q01DX009 (ip), vehicle: saline with Tween-80
[9] = dose: 100.0 mg/kg/injection, schedule: Q04DX002 (ip), vehicle: Klucel (hydroxypropylcellulose) (HPC)
[10] = dose: 200.0 mg/kg/injection, schedule: Q04DX002 (ip), vehicle: Klucel (hydroxypropylcellulose) (HPC)
[11] = dose: 400.0 mg/kg/injection, schedule: Q04DX002 (ip), vehicle: Klucel (hydroxypropylcellulose) (HPC)

Measured: T/C

C#C/C=C/CC1OC(C(Br)CC)CC(Br)C2CC1O2 (stereo not given)
inactive: dose: 75.0 mg/kg/injection, schedule: Q01DX001 (ip), vehicle: carboxymethylcellulose (CMC) 92 % of control | dose: 150.0 mg/kg/injection, schedule: Q01DX001 (ip), vehicle: carboxymethylcellulose (CMC) 96 % of control | dose: 300.0 mg/kg/injection, schedule: Q01DX001 (ip), vehicle: carboxymethylcellulose (CMC) 96 % of control

O=P(NC1CCCCC1)(Oc1ccccc1)Oc1ccccc1
inactive: dose: 50.0 mg/kg/injection, schedule: Q01DX001 (ip), vehicle: carboxymethylcellulose (CMC) 95 % of control | dose: 100.0 mg/kg/injection, schedule: Q01DX001 (ip), vehicle: carboxymethylcellulose (CMC) 92 % of control | [1] 102 % of control | dose: 200.0 mg/kg/injection, schedule: Q01DX001 (ip), vehicle: carboxymethylcellulose (CMC) 97 % of control | [2] 97 % of control | dose: 400.0 mg/kg/injection, schedule: Q01DX001 (ip), vehicle: carboxymethylcellulose (CMC) 97 % of control | [3] 100 % of control

O=C(O)/C=C/C(=O)Nc1ccccc1-n1cccc1
inactive: [4] 106 % of control | [5] 97 % of control

S=C=NCc1ccc(Cl)cc1
inactive: dose: 6.25 mg/kg/injection, schedule: Q01DX009 (ip), vehicle: Klucel (hydroxypropylcellulose) (HPC) 103 % of control | dose: 12.5 mg/kg/injection, schedule: Q01DX009 (ip), vehicle: Klucel (hydroxypropylcellulose) (HPC) 92 % of control | dose: 25.0 mg/kg/injection, schedule: Q01DX009 (ip), vehicle: Klucel (hydroxypropylcellulose) (HPC) 95 % of control

C1CN(SSN2CCOCC2)CCO1
inactive: dose: 12.5 mg/kg/injection, schedule: Q04DX003 (ip), vehicle: Klucel (hydroxypropylcellulose) (HPC) 89 % of control | dose: 25.0 mg/kg/injection, schedule: Q04DX003 (ip), vehicle: Klucel (hydroxypropylcellulose) (HPC) 110 % of control | dose: 50.0 mg/kg/injection, schedule: Q04DX003 (ip), vehicle: Klucel (hydroxypropylcellulose) (HPC) 89 % of control | [6] 102 % of control

CCCCCCC(C)(O)CCCCOC(C)OCC (stereo not given)
inactive: dose: 50.0 mg/kg/injection, schedule: Q04DX002 (ip), vehicle: saline with Tween-80 95 % of control | dose: 100.0 mg/kg/injection, schedule: Q04DX002 (ip), vehicle: saline with Tween-80 95 % of control | dose: 200.0 mg/kg/injection, schedule: Q04DX002 (ip), vehicle: saline with Tween-80 88 % of control | dose: 400.0 mg/kg/injection, schedule: Q04DX002 (ip), vehicle: saline with Tween-80 95 % of control

CC(C)C(NC(=O)OCc1ccccc1)C(=O)OCc1ccc([N+](=O)[O-])cc1 (stereo not given)
inactive: dose: 100.0 mg/kg/injection, schedule: Q01DX001 (ip), vehicle: other 90 % of control | dose: 200.0 mg/kg/injection, schedule: Q01DX001 (ip), vehicle: other 94 % of control | dose: 400.0 mg/kg/injection, schedule: Q01DX001 (ip), vehicle: other 90 % of control

NN1CCCC1C(=O)O (stereo not given)
inactive: dose: 75.0 mg/kg/injection, schedule: Q01DX001 (ip), vehicle: saline 97 % of control | dose: 150.0 mg/kg/injection, schedule: Q01DX001 (ip), vehicle: saline 92 % of control

CCCCN1CCNCC1
inactive: dose: 50.0 mg/kg/injection, schedule: Q01DX009 (ip), vehicle: saline 95 % of control | [4] 97 % of control | [5] 106 % of control

NCCSCCN
inactive: dose: 100.0 mg/kg/injection, schedule: Q01DX009 (ip), vehicle: Klucel (hydroxypropylcellulose) (HPC) 104 % of control | dose: 200.0 mg/kg/injection, schedule: Q01DX009 (ip), vehicle: Klucel (hydroxypropylcellulose) (HPC) 100 % of control

O=[N+]([O-])CC(OCCCO)C(Cl)(Cl)Cl (stereo not given)
inactive: dose: 6.25 mg/kg/injection, schedule: Q01DX009 (ip), vehicle: saline with Tween-80 92 % of control | dose: 12.5 mg/kg/injection, schedule: Q01DX009 (ip), vehicle: saline with Tween-80 101 % of control | dose: 25.0 mg/kg/injection, schedule: Q01DX009 (ip), vehicle: saline with Tween-80 104 % of control | [7] 92 % of control and 91 % of control

O=C1CCCCC1Cc1ccccc1 (stereo not given)
inactive: dose: 200.0 mg/kg/injection, schedule: Q04DX003 (ip), vehicle: acetone 95 % of control

N#C/C(=C\c1cc(Cl)cc(Cl)c1O)C(/C(C#N)=C/c1cc(Cl)cc(Cl)c1O)c1ccc2c(c1)OCO2 (stereo not given)
inactive: [8] 97 % of control | dose: 100.0 mg/kg/injection, schedule: Q04DX003 (ip), vehicle: saline 98 % of control | dose: 200.0 mg/kg/injection, schedule: Q01DX009 (ip), vehicle: saline with Tween-80 94 % of control | [2] 103 % of control | dose: 200.0 mg/kg/injection, schedule: Q04DX003 (ip), vehicle: saline 100 % of control | dose: 400.0 mg/kg/injection, schedule: Q01DX009 (ip), vehicle: saline with Tween-80 89 % of control | dose: 400.0 mg/kg/injection, schedule: Q04DX003 (ip), vehicle: saline 98 % of control

O=P(O)(CCP(=O)(O)c1ccccc1)c1ccccc1
inactive: [9] 95 % of control | [10] 91 % of control | [11] 106 % of control

Cc1ccc(S(=O)(=O)OC(CO)C(O)C(O)C(CO)OS(=O)(=O)c2ccc(C)cc2)cc1 (stereo not given) (tested in a mixture with another compound)
inactive: [9] 86 % of control | [10] 101 % of control | [11] 93 % of control

O=C(O)C12CC3CC1C2C3
inactive: [1] 103 % of control | [2] 91 % of control | [3] 86 % of control

Cc1cnc(SCc2ccccc2Cl)[nH]c1=O
inactive: dose: 25.0 mg/kg/injection, schedule: Q01DX Z (ip), vehicle: methylcellulose (MC) 90 % of control | dose: 50.0 mg/kg/injection, schedule: Q01DX Z (ip), vehicle: methylcellulose (MC) 100 % of control

C/C(=C\C(=O)O)CBr
inactive: [7] 93 % of control | [8] 86 % of control

CCOP(=O)(OCC)C1=C(P(=O)(OCC)OCC)CCCC1
inactive: dose: 9.5 mg/kg/injection, schedule: Q01DX001 (ip), vehicle: other 103 % of control | dose: 19.0 mg/kg/injection, schedule: Q01DX001 (ip), vehicle: other 105 % of control | dose: 38.0 mg/kg/injection, schedule: Q01DX001 (ip), vehicle: other 95 % of control

N#CCCCCN1C(=O)c2ccccc2C1=O
inactive: [7] 94 % of control | [8] 94 % of control | [1] 98 % of control | [2] 97 % of control

O=C(Oc1ccc(Cl)cc1)c1ccc(C(=O)Oc2ccc(Cl)cc2)cc1
inactive: dose: 75.0 mg/kg/injection, schedule: Q01DX009 (ip), vehicle: saline sonified 93 % of control | dose: 100.0 mg/kg/injection, schedule: Q04DX003 (ip), vehicle: Klucel (hydroxypropylcellulose) (HPC) 100 % of control | dose: 150.0 mg/kg/injection, schedule: Q01DX009 (ip), vehicle: saline sonified 91 % of control | [6] 97 % of control | dose: 300.0 mg/kg/injection, schedule: Q01DX009 (ip), vehicle: saline sonified 87 % of control | dose: 400.0 mg/kg/injection, schedule: Q04DX003 (ip), vehicle: Klucel (hydroxypropylcellulose) (HPC) 92 % of control

O=C1OC(=O)c2ccc([N+](=O)[O-])c3c(C(=O)O)ccc1c23
inactive: dose: 50.0 mg/kg/injection, schedule: Q01DX001 (ip), vehicle: saline 101 % of control | dose: 100.0 mg/kg/injection, schedule: Q01DX001 (ip), vehicle: saline 104 % of control | dose: 200.0 mg/kg/injection, schedule: Q01DX001 (ip), vehicle: saline 104 % of control | dose: 400.0 mg/kg/injection, schedule: Q01DX001 (ip), vehicle: saline 104 % of control
